Source: paper PMC2584044, “Key biosynthetic gene subfamily recruited for pheromone production prior to the extensive radiation of Lepidoptera” (BMC Evolutionary Biology, 2008)

Target: T1, Lca-QPAQ (Lca-Z9-QPAQ) (Lampronia capitella, UniProt B6CBS2)
T1 construct: full-length ORF, 353 residues, YEpOLEX in S. cerevisiae ole1
T1 sequence (B6CBS2 1-352): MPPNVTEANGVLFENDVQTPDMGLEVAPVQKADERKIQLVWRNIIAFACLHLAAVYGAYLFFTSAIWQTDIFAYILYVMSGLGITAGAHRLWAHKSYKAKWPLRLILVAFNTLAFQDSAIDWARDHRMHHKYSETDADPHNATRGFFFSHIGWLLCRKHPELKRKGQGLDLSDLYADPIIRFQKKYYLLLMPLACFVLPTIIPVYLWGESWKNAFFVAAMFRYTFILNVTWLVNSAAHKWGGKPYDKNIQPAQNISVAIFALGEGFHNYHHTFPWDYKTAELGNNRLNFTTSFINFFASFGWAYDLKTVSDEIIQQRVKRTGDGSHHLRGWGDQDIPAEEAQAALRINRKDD
Experiment: product GC-MS with DMDS adducts, yeast ole1 complementation
Format: cell-based
Conditions: endogenous yeast acyl (as acyl-CoA); 30 °C; product (Z)-9-hexadecenoic acid

Structure (SMILES): CCCCCCCCCCCCCCCC(=O)O [palmitic acid]
- product GC-MS with DMDS adducts, yeast ole1 complementation: Lca-QPAQ and Hass-KPSE are encoding Z9-desaturases displaying a substrate preference for palmitic acid
